What all share (format): cell-based
Data set [1] has as its system murine macrophage-like RAW 264.7 cells. Briefly: In vitro cytotoxicity test (MTS), RAW 264.7. To be noted: 72 h incubation, AmB concentration. As to the method:
(§1) In vitro cytotoxicity test: The cytotoxicity of TDs and AmB loaded nanoparticles (NPs) were studied using murine macrophage-like RAW 264.7 cells and human kidney 293T cells via MTS assays. Briefly, cells were seeded in 96-well plates at a density of 6×10^3 (RAW 264.7) and 3×10^3 (293T) cells per well and incubated overnight (Dulbecco's modified Eagle's medium (DMEM) medium, 5% CO2, 37° C.). TDs or AmB nanoformulations with different concentrations were added into each well to treat the cells. After 72 h incubation, CellTiter 96 AQueous MTS reagent was added to each well according to the manufacturer's instructions. The cell viability was determined by measuring the absorbance at 490 nm using a microplate reader (BioTek Synergy H1) with the untreated cells as negative controls. Results were obtained as the average cell viability of triplicate experiments calculated by a formula of [(ODtreat−ODblank)/(ODcontrol−ODblank)×100%]. Statistical analysis: Statistical analysis was carried out using GraphPad Prism (GraphPad Software, California, USA). One-way analyses of variance (ANOVA) was used for two-group and multiple-group analyses. […] The half maximal inhibitory concentration (IC50) was calculated by nonlinear regression analysis ([Inhibitor] vs. response—Variable slope (four parameters)). The half-life was determined by nonlinear regression analysis (one-phase association).

A further data set has as its system C. albicans (ATCC 10231). Put plainly: In vitro antifungal activity (MIC, dilution method). To be noted: 5×10^6 cells/mL, 24 h at 25° C. As to the method:
In vitro antifungal activity: In order to study the influence of encapsulation of AmB in TDs on the antifungal activity of the drug, the minimal inhibitory concentration (MIC), defined as the lowest concentration inhibiting clearly visible growth of the fungi, was determined by dilution method. The antifungal agents were tested at AmB final concentration range of 0.0125-5 μg/mL. The testing was performed in 96-well plates. Cell suspensions of C. albicans were prepared in Sabouraud's broth and adjusted to a final concentration of 5×10^6 cells/mL (fungal count determined by microscopic counts on a hemocytometer). The 96-well plate was incubated for 24 h at 25° C. and record the lowest concentration of AmB that prevented visible growth of C. albicans.

A further data set deals with human kidney 293T cells. Briefly: In vitro cytotoxicity test (MTS), 293T. To be noted: 72 h incubation, AmB concentration. As to the method: as §1

The values that follow come from patent US12702648B2 (priority 2023, dated 2026).

In brackets after ≈: the same amount, converted by molar mass.

Take `C[C@@H]1[C@H](O)[C@@H](C)/C=C/C=C/C=C/C=C/C=C/C=C/C=C/[C@H](O[C@@H]2O[C@H](C)[C@@H](O)[C@H](N)[C@@H]2O)C[C@@H]2O[C@](O)(C[C@@H](O)C[C@@H](O)[C@H](O)CC[C@@H](O)C[C@@H](O)CC(=O)O[C@H]1C)C[C@H](O)[C@H]2C(=O)O` [free AmB, Amphotericin B]: the “IC50 (cytotoxicity) to RAW 264.7” value in data set [1] was found to be 1.8 µg/mL. For the same compound, the “MIC (minimum inhibitory concentration)” value in the data set on C. albicans (ATCC 10231) was 0.05 µg/mL (≈ 0.0541 µM). Besides, the “IC50 (cytotoxicity) to 293T” value in the data set on human kidney 293T cells worked out at 4.3 µg/mL.
